Results: patent US20070036717A1, “Chemoradiotherapy with TS-1/camptothecins” (The Kitasato Gakuen Foundation, priority 2005, published 2007)
Structures can show the parent of a compound that is named as a salt.

Assay: Adverse reactions (NCI-CTC Version 2.0), maximum tolerated and recommended dose of CPT-11
Assay type: in vivo, human patients
Conditions: with TS-1 80 mg/m^2/day and radiation 45 Gy
Procedure: A Phase I/II clinical study of preoperative chemoradiotherapy with TS-1/CPT-11 was conducted to estimate the maximum tolerated dose (MTD) and recommended dose (RD) of CPT-11. The subjects had cancer of the rectum (excluding the rectosigmoid (Rs)) with a preoperative diagnosis of T3′ (tumors showing invasion through the muscularis propria into the subserosa, or into the nonperitonealized pericolic or perirectal tissues) or T4′ (tumors perforating the visceral peritoneum and/or directly invading other organs or structures), and N0 to N3′. Response rates and safety (percentage of adverse reactions and percentage of complications) were also evaluated with RD administration. (2) Subject selection
Level 1 (CPT-11, 40 mg/m^2) was the starting dose, and dose was titrated until the maximum tolerated dose could be estimated. […]
After the level of the maximum tolerated dose was confirmed, the recommended dose was determined by reducing the 10 mg/m^2 (one level) increments.
Maximum tolerated dose was determined on the basis of the adverse reactions observed during the first week after completing chemotherapy. (Maximum tolerated dose was evaluated in the modality of coadministration with radiation.)
Side effects were evaluated according to the National Cancer Institute Common Toxicity Criteria (Version 2.0; NCI-CTC). Effects not on the NCI-CTC form were scored on the following five-grade scale.

SMILES: CCc1c2c(nc3ccc(OC(=O)N4CCC(N5CCCCC5)CC4)cc13)-c1cc3c(c(=O)n1C2)COC(=O)[C@]3(O)CC [CPT-11, (4S)-4a, 11-diethyl-4β-hydroxy-9-[[4-(piperidin-1-yl)piperidin-1-yl]carbonyloxy]1H-pyrano[3′,4′:6,7]indolizino[1,2-b]quinoline-3,14-(4H,12H)dione hydrochloride salt]
- final recommended dose of CPT-11: 80 mg/m^2
